Measured values as given in patent US8455240B2, “Use of thermophilic sulphate-reducing archaea for the implementation of a process for the degradation of hydrocarbons” (Institut de Recherche pour le Development (I.R.D.), priority 2005, dated 2013).
Values joined by “and” are separate entries in the source; they are usually repeats but may differ in a detail not shown here. Equal entries are not always repeated.

Legend:
[1] = test system: Archaeoglobus fulgidus (DSM 4304); assay: Degradation of different substrates by A. fulgidus as a function of the electron acceptor; format: cell-based; details: for total H2S: unit from b116
Procedure: (§1) Experimentally, 4 ml of Cord-Ruwish reagent comprising 50 mmol/l of HCl and 5 mmol/l of CuSO4 are added to 0.1 ml of sample. Copper sulphate (CuSO4) by reacting with hydrogen sulphide (H2S), forms a copper sulphide precipitate (CuS) after the reaction: CuSO4+H2S→CuS+H2SO4
(§2) According to this method, the CuS is assayed by spectrophotometry at 480 nm. The readings are carried out against a blank constituted by 4 ml of Cord-Ruwish reagent.
(§3) The analysis and quantification of the metabolites are carried out by HPLC by measuring the disappearance of the substrate and the appearance of different metabolism products.
(§4) The study of the degradation abilities of different substrates of the strain L-3 was based on a comparison with the collection strain, Archaeoglobus fulgidus (DSM 4304). The degradation of the substrates, by the two strains was monitored by a measurement of the cell biomass at 580 nm, a sulphide assay produced according to the Cord-Ruwish method, a study of the degradation metabolites by HPLC, completed by a CO2 assay with a GPC-Katharometer.
(§5) Two series of tests were prepared, one with thiosulphate, the other with sulphate as an electron acceptor.

strain L-3 [2] = assay: Subculture on hydrocarbons, strain L-3 (sulphide production); format: cell-based, Archaeoglobus fulgidus CNCM I-3465 (strain L-3)
Procedure: as §1, §2
(§6) A subculture was carried out starting from the preceding experiment on naphthalene, DBT solubilized as previously in HMN, and on HMN alone, for the two strains studied.
(§7) For this subculture, apart from the tests containing the hydrocarbon (DBT, naphthalene (Naph), […]), and seeded with the previously chosen inoculum, abiotic controls (negative controls) containing the substrate (hydrocarbon) but not inoculated were produced for the purpose of quantifying the sulphide production which could be due to chemical reactions between the different constituents of the medium. In these controls there was no development in the concentration of sulphide over a period of 20 days (Table 4).

Archaeoglobus fulgidus [3] = assay: Screening for hydrocarbon degradation, A. fulgidus (sulphide production, Cord-Ruwish); format: cell-based
Procedure: as §1, §2
(§8) The study of the hydrocarbon degradation abilities is an experiment which requires a particularly long incubation. Thus, it was carried out in Bellco tubes sealed with thick rubber stoppers.
(§9) For these experiments, tubes containing 10 ml of culture medium without substrate, are 10% inoculated, then the hydrocarbon is introduced by injection through the stopper.
(§10) The hydrocarbons chosen are model molecules belonging to the different classes of hydrocarbons, namely: • hexadecane (CH3(CH2)14CH3, C16), a saturated linear aliphatic hydrocarbon; • hexadecene (CH3(CH2)13CHCH2, C16:1), an unsaturated linear aliphatic hydrocarbon of biogenic origin; • dibenzothiophene (DBT, C12H8S), a sulphur-containing aromatic hydrocarbon.
(§11) The aliphatic hydrocarbons (C16; C16:1) are added to the corresponding tubes, at a rate of 0.04 ml/10 ml of culture medium. The aromatic hydrocarbons (DBT) are solubilized in 2,2,4,4,6,8,8-heptamethylnonane (HMN, C16H34) at a rate of 20 mg/ml of HMN, and 0.75 ml of this solution is injected into 10 ml of culture medium.
(§12) 3 tubes were produced for each test and control. The growth of the strains was monitored indirectly by the production of sulphide.
as §6

A. fulgidus [4] = assay: Subculture on hydrocarbons, A. fulgidus (sulphide production); format: cell-based, Archaeoglobus fulgidus; details: for ΔS tf-ti: final minus initial sulphide
Procedure: as §1, §2, §6, §7

strain L-3 [5] = assay: Screening for hydrocarbon degradation, strain L-3 (sulphide production, Cord-Ruwish); format: cell-based, Archaeoglobus fulgidus CNCM I-3465 (strain L-3); details: for Count / OD 580 / H2S: choice of the inoculum for the subculture; for H2S: tubes of the screening; for ΔS tf-ti: final minus initial sulphide
Procedure: as §1, §2, §8, §9, §10, §11, §12, §6

strain L-3 [6] = assay: Sources of carbon and energy used by the strain L-3; format: cell-based, Archaeoglobus fulgidus CNCM I-3465 (strain L-3); details: thiosulphate as electron acceptor; for H2S (480 nm): unit from b126
Procedure: as §1, §2, §3
The study of the growth of the strain L-3 in the presence of different sources of carbon and energy was carried out with thiosulphate as an electron acceptor. The monitoring was carried out by estimation of the cell biomass (OD 580 nm), by assay of the sulphide production (Cord-Ruwish). The results were confirmed by HPLC analyses, and completed in certain cases by a CO2 assay.

Archaeoglobus fulgidus [7] = assay: Degradation kinetics of lactate; format: cell-based
Procedure: as §3
This can be explained by the fact that the strain L-3 can have a substrate degradation metabolism different from that of Archaeoglobus fulgidus.

strain L-3 [8] = assay: Degradation of different substrates by the strain L-3 as a function of the electron acceptor; format: cell-based, Archaeoglobus fulgidus CNCM I-3465 (strain L-3); set-up: total H2S: unit not given here
Procedure: as §1, §2, §3, §4, §5

[9] = test system: Archaeoglobus fulgidus DSM 4304; assay: Monitoring of thiosulphate during the degradation of fatty acids by A. fulgidus; format: cell-based; details: end of May 2005; E1/E2 replicates; listed as C8 fatty acid
Procedure: (§13) The thiosulphate and sulphate assays are carried out by ion chromatography.
(§14) The analyses are carried out with a chromatograph (Compact IC 761, Metrohm) equipped with: • A […] ion-exchange column (Metrosep A SUPP 1-250 (6.1005.300)), size 4.6*250 mm; • The eluent used is Na2CO3 at a concentration of 3 mmol/l, at a flow rate of 1 to 2.5 ml/min; ((→the flow rate varies during the analysis)) • A sample processor (Metrohm 838); • A conductimeter; • A computer where the results are recorded, integrated and analyzed by software (761 Compact IC, Metrohm). III.3.2. Operating Method
(§15) The operating conditions are such that the temperature is 20° C. and the pressure is 5 MPa. The samples to be analyzed are filtered. The injection volume is 20 μl. The detection is of conductimetric electrochemical type with chemical suppression allowing elution gradients.
(§16) Monitoring of thiosulphate during the degradation of fatty acids by A. fulgidus and by L-3

strain L-3 [10] = assay: Monitoring of thiosulphate during the degradation of fatty acids by L-3; format: cell-based, Archaeoglobus fulgidus CNCM I-3465 (strain L-3); details: end of May 2005; E1/E2 replicates; listed as C8 fatty acid
Procedure: as §13, §14, §15, §16

A. fulgidus [11] = assay: Complementary experiment: sulphate as electron acceptor instead of thiosulphate; format: cell-based, Archaeoglobus fulgidus
Procedure: A first experiment was carried out with A. fulgidus for the purpose of studying the effect of sulphate as an electron acceptor instead of the thiosulphate used previously. […] This explains that at the bottom of the oceans where sulphate is abundant relative to thiosulphate which is in the minority, the phenomenon of DBT or HMN degradation cannot occur spontaneously.

[12] = test system: Archaeoglobus fulgidus (collection strain); assay: Quantitative study of the degradation of hydrocarbons (DBT, HMN), collection strain; format: cell-based
Procedure: Experiments were carried out in order to establish the stoichiometric equation of the degradation of hydrocarbons in the case of the collection strain only. Thus, the hydrocarbon concentrations were assayed at the initial and final time, like the thiosulphate concentrations. Moreover, the increase in the biomass was followed by the increase in the microbial population based on the most probable number method (MPN).
In order to be able to quantify the hydrocarbons with precision, the thick rubber stoppers were covered with a Teflon film, an inert substance which avoids any loss of the hydrocarbon by absorption or adsorption.
The hydrocarbons were added at a rate of: • for the DBT: 10 mg of DBT dissolved in 0.5 ml of HMN, 0.5 ml of this solution is added to the tests; • for the HMN: 6 μl of HMN/10 ml of culture medium.
The tests prepared are inoculated with the preceding subculture.

[13] = thiosulphate as electron acceptor
[14] = thiosulphate or sulphate as electron acceptor
[15] = choice of the inoculum for the subculture

Row | Compound | sulphide production (OD 480) 0 d (strain L-3 [2]) | sulphide production (OD 480) 8 d (strain L-3 [2]) | sulphide production (OD 480) 22 d (strain L-3 [2]) | sulphide production (OD 480) 45 d (strain L-3 [2]) | sulphide production (OD 480) 45 d (Archaeoglobus fulgidus [3]) | sulphide production (OD 480) 60 d (Archaeoglobus fulgidus [3]) | sulphide production (OD 480) 70 d (Archaeoglobus fulgidus [3]) | sulphide production (OD 480) 8 d (A. fulgidus [4]) | sulphide production (OD 480) 22 d (A. fulgidus [4]) | sulphide production (OD 480) 45 d (A. fulgidus [4]) | sulphide production (OD 480) 45 d (strain L-3 [5]) | microbial growth with sulphate as electron acceptor (A. fulgidus [11]) | sulphide assay at the end of 75 days [12] | sulphide production (OD 480) 10 d (Archaeoglobus fulgidus [3]) | ΔS tf-ti (A. fulgidus [4]) | sulphide production (OD 480) 70 d (strain L-3 [5]) | Count (strain L-3 [5]) | OD 580 (strain L-3 [5]) | H2S (strain L-3 [5]) | ΔS tf-ti (strain L-3 [5]) | other results
1 | lactate | 0.2 mM and 0.1 mM | 4.8 mM and 6.1 mM | 4.7 mM and 8 mM | 3.9 mM | 3.5 mM and 3.8 mM and 4.3 mM | 3.3 mM and 3 mM and 3.1 mM | 3.9 mM and 3.7 mM | 0.3 mM | 0.3 mM | 0.2 mM and 0.3 mM | 1.8 mM and 3.2 mM and 1.7 mM |  |  |  |  |  |  |  |  |  | initial OD 580 ([1]; sulphate as electron acceptor): 0.1657 and 0.1456; total H2S ([1]; sulphate as electron acceptor): 7.1 mM and 12.2 mM; final OD 580 [1, 13]: 0.3681 and 0.314; initial OD 580 [1, 13]: 0.1333 and 0.1419; total H2S [1, 13]: 8 mM and 9.3 mM; ability of Archaeoglobus fulgidus to oxidize the substrate [1, 14]: capable of oxidizing; ΔS tf-ti (Archaeoglobus fulgidus [3]; final minus initial sulphide): 3.6 mM and 3.2 mM; OD 580 nm Final (strain L-3 [6]): 0.1249 and 0.1173; OD 580 nm Initial (strain L-3 [6]): 0.0742 and 0.0841; H2S (480 nm) (strain L-3 [6]): 5.7 mM and 2.9 mM; H2S (480 nm) (strain L-3 [6]; listed as lactate): 5.7 mM; lactate degradation at the end of three months (Archaeoglobus fulgidus [7]): all of the lactate is degraded; final OD 580 (strain L-3 [8]; sulphate as electron acceptor): 0.3076 and 0.2071; initial OD 580 (strain L-3 [8]; sulphate as electron acceptor): 0.1024 and 0.0888; total H2S (strain L-3 [8]; sulphate as electron acceptor): 2.8 and 1.4; final OD 580 (strain L-3 [8]; [13]): 0.1027 and 0.1161; initial OD 580 (strain L-3 [8]; [13]): 0.073 and 0.1029; total H2S (strain L-3 [8]; [13]): 9.3 and 7.2; ability of the strain L-3 to degrade the substrate (strain L-3 [8]; [14]): capable of degrading
2 | CCCCCCCC(=O)O [octanoate] |  |  |  |  |  |  |  |  |  |  |  |  |  |  |  |  |  |  |  |  | thiosulphate, end of May 2005 [9]: 8.2 mM and 9.27 mM; thiosulphate, end of May 2005 (strain L-3 [10]): 9.56 and mM and 9.33 mM
3 | CC(CC(C)(C)C)CC(C)(C)CC(C)(C)C (centres unmarked) [HMN, 2,2,4,4,6,8,8-heptamethylnonane] | 0.3 mM and 0.2 mM | 0.6 mM and 0.5 mM and 0.4 mM | 1 mM and 0.9 mM and 0.6 mM |  | 0.8 mM and 1.1 mM | 0.9 mM and 0.7 mM and 1.3 mM | 1.3 mM and 0.9 mM and 1.2 mM | 0.6 mM and 1 mM and 0.7 mM |  | 2 mM and 3.5 mM and 2.2 mM | 0.7 mM and 0.9 mM | no microbial growth | approximately 6 mM | 0.8 mM and 1 mM | 1.4 mM and 2.5 mM and 1.5 mM | 1 mM and 1.4 mM and 1.9 mM | 6.08*10^7 Cells/ml | 0.5921 and 0.6696 | 1 mM and 1.4 mM and 2 mM | 1 mM and 1.4 mM and 2 mM | Sulphide (mM)(480 nM) ([12]; after 7 weeks of incubation, with yeast extract (EL)): 1.3 mM; H2S (Archaeoglobus fulgidus [3]; choice of the inoculum for the subculture, tubes of the screening): 1.3 mM and 0.9 mM and 1.2 mM; sulphide production during the subculture, on average (A. fulgidus [4]): 1.8 mM
4 | c1ccc2c(c1)sc1ccccc12 [DBT, dibenzothiophene] | 0.3 mM and 0.2 mM | 0.6 mM and 0.4 mM | 1.1 mM and 1 mM and 0.8 mM | 2 mM and 1.1 mM and 1 mM | 1.1 mM and 1.3 mM | 1.1 mM and 1.7 mM and 1.5 mM |  | 1.3 mM and 1.1 mM and 1.2 mM | 2.1 mM and 1.9 mM |  | 1 mM and 1.2 mM and 1.4 mM | no microbial growth | approximately 9.5 mM | 0.6 mM and 0.8 mM and 0.7 mM | 3 mM and 3.1 mM and 3.2 mM | 0.9 mM and 1.2 mM and 1.4 mM | 8.17*10^7 Cells/ml and 6.55*10^7 Cells/ml | 0.2284 and 0.3479 | 0.9 mM and 1.2 mM | 0.8 mM and 1.2 mM and 1.5 mM | sulphide production (OD 480) 0 d (Archaeoglobus fulgidus [3]; 0 d, aromatics solubilized in HMN): 0.4 mM and 0.3 mM and 0.5 mM; sulphide value in the hydrocarbon screening stage (ΔS45d, Table 1) (Archaeoglobus fulgidus [3]; 45 days): ≤ 1 mM; Count (Archaeoglobus fulgidus [3]; [15]): 9.4*10^7 Cells/ml and 8.33*10^7 Cells/ml and 7.22*10^7 Cells/ml; OD 580 (Archaeoglobus fulgidus [3]; [15]): 0.9801 and 1.424 and 0.9189; sulphide production (OD 480) 0 d (A. fulgidus [4]; 0 d): 0.2 mM and 0.1 mM; sulphide production (OD 480) 60 d (strain L-3 [5]; 60 d): 0.6 mM and 0.7 mM and 1.1 mM
